PubChem BioAssay AID1259334 (Broad Institute, 2017)
Activity calls are given as the source filed them. Cut-off read from the data, not from the text of the source: active = AC50 below about 11 µM.

Assay: TNFa pathway inhibition counter-screen, B-lineage cells – dose response (AID 1259334);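 note: cells stimulated with TNFa after compound preincubation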
Details: B cell line, TNFa signaling counterscreen reporter; at 0.0015 µM; hits give low values

SMILES | max activity
Cc1ccc(-c2nn3c(C)nnc3c3ccccc23)cc1S(=O)(=O)NCc1ccccc1 | 9.48% (inactive)

Same assay, conditions: B cell line, TNFa signaling counterscreen reporter; at 0.0046 µM; hits give low values

SMILES | max activity
COc1cccc(S(=O)(=O)N(C)C[C@H]2OCc3ccccc3-c3c(n(C)c4ccccc34)C(=O)N([C@@H](C)CO)C[C@H]2C)c1 | 10.1% (inactive)
NS(=O)(=O)c1cc2c(cc1C(F)(F)F)NC(Cc1ccccc1)NS2(=O)=O (configuration not stated) | 6.69% (inactive)

Same assay, conditions: B cell line, TNFa signaling counterscreen reporter; at 0.0135 µM; hits give low values

SMILES | max activity
C[C@@H]1CN([C@@H](C)CO)C(=O)Cc2cc(NS(=O)(=O)c3ccccc3)ccc2O[C@H]1CN(C)Cc1ccc(Cl)c(Cl)c1 | 16% (inactive)
COc1cccc(OC)c1OCCNCC1COc2ccccc2O1 (configuration not stated) | 14.5% (inactive)

Same assay, conditions: B cell line, TNFa signaling counterscreen reporter; at 0.042 µM; hits give low values

SMILES | max activity
CC(=O)Nc1ccc(S(=O)(=O)c2ccc(N)cc2)cc1 | 6.36% (inactive)
COc1ccc(S(=O)(=O)N(C)C[C@H]2Oc3ccc(NC(=O)Nc4ccc(C(F)(F)F)cc4)cc3C(=O)N([C@@H](C)CO)C[C@H]2C)cc1 | 15.2% (inactive)
O=S(=O)(c1cccc2cnccc12)N1CCNCC1 | -11.3% (inactive)

Same assay, conditions: B cell line, TNFa signaling counterscreen reporter; at 0.135 µM; hits give low values

SMILES | max activity
N#C[C@H]1[C@H](c2ccc(C#CC3CCCCC3)cc2)[C@@H](CO)N1C(=O)Nc1ccc(F)cc1 | 9.41% (inactive)

Same assay, conditions: B cell line, TNFa signaling counterscreen reporter; at 0.38 µM; hits give low values

SMILES | max activity
Oc1cc(O)cc(/C=C/c2ccc(O)c(O)c2)c1 | 7.46% (inactive)
C[C@H]1CN([C@@H](C)CO)C(=O)c2ccccc2-c2ccccc2CO[C@H]1CN(C)C(=O)[C@@H](Cc1ccccc1)N(C)C | -6.07% (inactive)
N#Cc1cccc(-c2ccc([C@@H]3[C@H](CO)N4CCCCN(C(=O)Nc5cccc(F)c5)C[C@@H]34)cc2)c1 | -15% (inactive)
CC(=O)c1cc(-c2ccccc2)n(CC(=O)NCc2cccs2)c1C | 12.3% (inactive)

Same assay, conditions: B cell line, TNFa signaling counterscreen reporter; at 1.1 µM; hits give low values

SMILES | max activity
Cc1ccc2nc(-c3cc(-c4ccccc4)no3)cn2c1 | 49.4% (inactive)
NS(=O)(=O)c1nn2cc(-c3ccccc3)nc2s1 | 17.7% (inactive)

Same assay, conditions: B cell line, TNFa signaling counterscreen reporter; at 3 µM; hits give low values

SMILES | max activity
C[C@H]1CN([C@@H](C)CO)C(=O)c2c(c3ccccc3n2C)-c2ccccc2CO[C@@H]1CN(C)S(=O)(=O)c1ccc([N+](=O)[O-])cc1 | -14.8% (inactive)

Same assay, conditions: B cell line, TNFa signaling counterscreen reporter; at 3.5 µM; hits give low values

SMILES | max activity
CCCC(C)Sc1nc2c([nH]1)c(=S)n(C)c(=O)n2C (configuration not stated) | 58.9% (inactive)
Cc1ccc(S(=O)(=O)N2CCCC2CNC(=O)c2ccc3c(c2)OCO3)cc1 (configuration not stated) | -23.3% (inactive)
COc1ccc(S(=O)(=O)Nc2ccc3c(c2)C(=O)N([C@@H](C)CO)C[C@@H](C)[C@@H](CN(C)Cc2ccc(C(F)(F)F)cc2)OCCCC[C@H](C)O3)cc1 | -16.5% (inactive)
COCCn1c(C)cc(C(=O)COC(=O)c2ccc(Br)o2)c1C | -9.22% (inactive)
N#Cc1ccc(-c2ccc3c(c2)[C@H]2[C@H](CCN2C(=O)C2CC2)[C@@H](CO)N3)cc1 | -16.6% (inactive)
Cc1ccc(-c2cc(C(=O)N3CCCC(C(F)(F)F)C3)c3ccccc3n2)o1 (configuration not stated) | 21.4% (inactive)
N#C[C@H]1[C@@H](c2ccc(C#CC3CCCCC3)cc2)[C@H](CO)N1C(=O)Nc1ccc(F)cc1 | -11.6% (inactive)
Cc1ccc(OCCn2cnc3c(N)ncnc32)cc1 | -11.4% (inactive)

Same assay, conditions: B cell line, TNFa signaling counterscreen reporter; at 10 µM; hits give low values

SMILES | max activity
CCc1cnc(N2[C@H](C#N)[C@@H](c3ccccc3C3=CCCC3)[C@@H]2CO)s1 | 9.74% (inactive)
Cc1noc(C)c1S(=O)(=O)N(C)C[C@H]1OCc2ccccc2-c2c(n(C)c3ccccc23)C(=O)N([C@H](C)CO)C[C@H]1C | -12.3% (inactive)
c1cncc(C2=NCCC2)c1 | 38% (inactive)
OC(CCN1CCCCC1)c1ccc(-c2ccccc2)cc1 (configuration not stated) | 32.8% (inactive)
C=C1C(=O)OC2C=C(CO)CCC=C(CO)CC(OC(=O)C(C)C)C12 (configuration not stated) | 28.9% (inactive)
O=C(NCCC(c1ccccc1)c1ccco1)c1cccs1 (configuration not stated) | 46.8% (inactive)
CCc1cc2c(=O)c(-c3ccc4c(c3)OCCO4)coc2c(CN2CCCCC2C)c1O (configuration not stated) | 26.6% (inactive)
CCOC(=O)c1cc2c(ccn2C)n1Cc1ccc(C#N)cc1 | 20.1% (inactive)
